Series [1] relates to subgenomic RNA-replicon HCV (genotype 1a). The series can be described thus: Antiviral activity in Huh7 cells with subgenomic HCV RNA-replicon, ELISA on viral cor-antigen (genotype 1a). It is filed as cell-based. The procedure:
(§1) Antiviral activity (EC50) of nucleoside inhibitors of HCV RNA-polymerase NS5B of the general formula 1, 2 and 3 (further—test compounds) was determined in the human hepatoma cell line Huh7, comprising subgenomic RNA-replicon HCV (genotype 1b, 1a and 2a). For quantitative estimation of viral replication was used a version of immune test ELISA on viral cor-antigen in 96-well plate. Cytotoxicity of the compounds was estimated in parallel regime. As a reference substance was used PSI-7977. Cells Huh7 were seeded in 96-well plate (7.5×10^3 cells to each well in 100 μl of culture medium). Solutions of the tested compounds in DMEM medium {DMEM 1×; Source: Cellgro; Catalogue: 10-013-CV} were prepared immediately before use. Eleven serial three fold dilutions with concentrations from 20 nM to […] were prepared. In 4 hours after seeding, serial dilutions of the compounds were added to the cells (100 μl to each well). Final concentration of tested compounds was varied from 10 nM to 0.1 pM, and DMSO—0.5%. If it was necessary, higher concentrations of the test compounds were investigated. Each dilution of the compound was tested on two identical wells. Then the cells were incubated for three days at 37° C./5% CO2 and fixed by addition of acetone/methanol (1:1) mixture in amount of 250 μl/well. In 1 min the cells were washed 3 times with PBS (Phosphate Buffered Saline) solution. Then the cells were blocked by addition of 10% fetal calf serum in PBS solution in amount of 150 μl/well for 1 h at room temperature. After that the cells were incubated with mouse monoclonal antibodies to cor-antigen HCV, clon C7-50 (Source: Affinity BioReagents; Catalogue: MA1-080) (100 μl/well, working dilution—1:500 in 10% fetal calf serum in PBS solution) for 2 h at 37° C. The cells were washed 6 times with PBS/0.05% Tween 20 solution, then, they were incubated for 1 h with goat anti-mouse immunoglobulin antibodies (conjugated with horseradish peroxidase, 100 μl/well, working dilution—1:2500 in 10% fetal calf serum in PBS solution). The cells were washed 6 times with PBS/0.05% Tween 20 solution, once with PBS solution, after that substrate (1 tablet of o-phenylenediamine (oPD)+12 ml citrate/phosphate buffer+5 μl 30% H2O2) in amount of 100 μl/well was added. The plates were kept for 30 min in the dark at room temperature. The reaction was arrested by the adding 2N H2SO4 in amount of 100 μl/well, and optical density (at wavelength 490 nm) was measured by means of multiscan plate reader Victor3 V 1420 (Perkin Elmer). IC50 values (concentration of test compound, lowering the level of virus RNA-replicon by 50%) for every tested compound were calculated using XLfit 4 program.
In general terms: A replicon is a self-replicating genome or part of one, used to study replication in cells.

Series [2] concerns subgenomic RNA-replicon HCV (genotype 1b). Briefly: Antiviral activity in Huh7 cells with subgenomic HCV RNA-replicon, ELISA on viral cor-antigen (genotype 1b). The series is classed as cell-based. The procedure:
as §1

In series [3] the test system is subgenomic RNA-replicon HCV (genotype 2a). The series can be described thus: Antiviral activity in Huh7 cells with subgenomic HCV RNA-replicon, ELISA on viral cor-antigen (genotype 2a). The series is classed as cell-based. The method, then: as §1
Series [4] is described as follows: Cytotoxicity determination, ATPLite kit. The series is classed as cell-based, human. Particulars: human; Huh7 cells, genotype 1b, 10% FBS. The procedure: (§2) Cytotoxicity of the test compounds (CC50) was investigated in experiments on the human hepatoma cell line Huh7. Metabolic activity of cells was determined using ATPLite kit (Perkin Elmer, Boston, USA) in accordance with manufacturer instructions. Cytotoxic action was estimated by seeding the cells into black microplate with transparent bottom (96 wells, 10^4 cells to each well). Three independent repeats were used for each test compound. The tested compounds were added in 18 h, after that the cells were incubated together with the compounds for 96 h. Each well was washed two times with phosphate buffered saline (0.2 ml/well) and then the cells were lysed by adding cell buffer (50 μl/well) (all mentioned reagents are included in ATPLite kit). The microplate was incubated for 5 min on a rotating platform at 600 r/min, after that 50 μl of substrate solution (a part of ATPLite kit) was added into each well. The microplate was incubated for additional 5 min on a rotating platform at 600 r/min, kept for 10 min in the dark; after that luminescence was measured using TopCount NXT instrument (Packard, Perkin Elmer). CC50 Value corresponding to concentration of tested compound at which 50% of cells were ruined was used as quantitative characteristic for cytotoxicity estimation. Calculation of CC50 value: for calculation of inhibition effectiveness (% Inh) the following equation was used: % Inh=[(L^pos−L^ex)/L^pos−L^neg)]*100%, where L^pos—positive control, luminescence in the wells with cells without compounds; L^neg—negative control, luminescence in the wells with medium without cells; L^ex—luminescence in wells with a compound of definite concentration. Then, CC50 values were calculated using XLfit 4 program.
Background: In ATP-based viability assays light output follows the ATP content of the culture.

Series [5] deals with viral hepatitis C. The settings on record: together with Daclatasvir; previously untreated patients; without interferon and Ribavirin; intermediate data; cited from earlier work.
For series [6], the system named is human hepatoma cell line Huh7. The series can be described thus: Cytotoxicity determination, ATPLite kit. The series is classed as cell-based. Particulars: Huh7 cells, genotype 1b, 10% FBS. The method, then:
as §2

Setting [7] is: Hepatitis C virus, Huh-7, Huh7 replicon, genotype 1a, 10% FBS, read-out: EC50, HCV genotype 1a.
Setting [8] is: Hepatitis C virus, Huh-7, read-out: EC50, HCV genotype 1b.
Where [9] appears, read: Hepatitis C virus, Huh-7, Huh7 replicon, genotype 2a, 10% FBS, read-out: EC50, HCV genotype 2a.
The mark [10] stands for this setting: Huh7 replicon, genotype 1a, 10% FBS, read-out: EC50, HCV genotype 1a.
[11] abbreviates: Huh7 replicon, genotype 1b, 10% FBS, read-out: EC50, HCV genotype 1b.
Where [12] appears, read: Huh7 replicon, genotype 2a, 10% FBS, read-out: EC50, HCV genotype 2a.

The structures appear in SMILES notation. Where two headings read alike, the source gives them in different places. Some results are limits rather than exact numbers.

Broadly, the EC50 is the midpoint of the concentration-response curve. As a reminder, the CC50 is the concentration giving 50% cytotoxicity. With `CC(C)OC(=O)[C@H](C)NP(=O)(OC[C@H]1O[C@@H](n2ccc(NC(=O)CN(C)C)nc2=O)C(F)(F)[C@@H]1O)Oc1ccccc1` (stereo partly drawn) [1.1.2(1), iso-propyl (S)-2-({(2R,3R,5R)-5-[4-(2-dimethylamino-acetylamino)-2-oxo-2H-pyrimidin-1-yl]-4,4-difluoro-3-hydroxy-tetrahydro-furan-2-ylmethoxy]-phenoxy-phosphorylamino}-propionate], the EC50 was determined as 106 nM in series [1] (setting [7]), 35 nM in series [2] (setting [8]) and 116 nM in series [3] (setting [9]). For the same molecule, the CC50 at 96 h in series [4] is more than 10000 nM.

Turning to `CC(=O)O[C@@H]1[C@@H](COP(=O)(N[C@@H](C)C(=O)OC(C)C)Oc2ccccc2)OC(n2ccc(N)nc2=O)C1(F)F` (stereo partly drawn) [compound 3, (S)-iso-propyl 2-((((2R,3R)-3-acetoxy-5-(4-amino-2-oxopyrimidin-1(2H)-yl)-4,4-difluoro-tetrahydrofuran-2-yl)methoxy)(phenoxy)phosphorylamino)propanoate], the figures for the EC50 in series [1] (setting [7]), in series [2] (setting [8]) and in series [3] (setting [9]) were 141 nM, 15.7 nM and 61 nM, respectively. In series [4], the CC50 at 96 h is more than 10000 nM.

As for `CC(C)OC(=O)C(C)NP(=O)(OCC1OC(n2ccc(NC(=O)C(NC(=O)OC(C)(C)C)C(C)C)nc2=O)C(F)(F)C1O)Oc1ccccc1` (centres unmarked) [1.1.2(3)], the EC50 in series [1] (Hepatitis C virus, Huh-7, read-out: EC50, HCV genotype 1a) stood at 182 nM; in series [2] (setting [8]), 60.9 nM; in series [3] (Hepatitis C virus, Huh-7, read-out: EC50, HCV genotype 2a) it was 69.4 nM. This molecule also had a half-maximal cytotoxic concentration (CC50) at 96 h in series [4] of more than 10000 nM.

In the case of `CC(C)OC(=O)[C@H](C)N[P@](=O)(OC[C@H]1O[C@@H](n2ccc(=O)[nH]c2=O)[C@](C)(F)[C@@H]1O)Oc1ccccc1` [PSI-7977, iso-propyl (S)-2-{(S)-[(2R,3R,4R,5R)-5-(2,4-dioxo-3,4-dihydro-2H-pyrimidin-1-yl)-4-fluoro-3-hydroxy-4-methyl-tetrahydro-furan-2-ylmethoxy]-phenoxy-phosphorylamino}-propanoate, reference compound], the EC50 in series [1] (setting [10]) turned out to be 292 nM; in series [2] (setting [11]), 91.8 nM; in series [3] (setting [12]), 88.4 nM. The “positive result in patients” value in series [5] is reported as 100%. The CC50 in series [6] was more than 10000 nM.

In the case of `CC(C)OC(=O)[C@H](C)NP(=O)(OC[C@H]1OC(n2ccc(NC(=O)[C@@H]3CCCN3C)nc2=O)C(F)(F)[C@@H]1O)Oc1ccc(Cl)cc1` (some centres unmarked) [1.1.2(6)], the EC50 in series [1] (setting [7]) came out at 124 nM; in series [2] (setting [8]), 14.4 nM; in series [3] (setting [9]), 79.3 nM. In series [4], the CC50 at 96 h is more than 10000 nM.

With `CC(C)OC(=O)[C@H](C)NP(=O)(OC[C@H]1OC(n2ccc(N)nc2=O)C(F)(F)[C@@H]1O)Oc1ccccc1` (stereo partly drawn) [compound 2, (S)-iso-propyl 2-((((2R,3R)-5-(4-aminooxopyrimidin-1(2H)-yl)-3-hydroxy-2-4,4-difluoro-tetrahydrofuran-2-yl)methoxy)(phenoxy)phosphorylamino)propanoate], the EC50 in series [1] (setting [10]) amounted to 114 nM; in series [2] (setting [11]), 13.9 nM; in series [3] (setting [12]), 57.2 nM. This molecule also came in with a CC50 in series [6] of more than 10000 nM.

As for `CC(C)OC(=O)[C@H](C)NP(=O)(OC[C@H]1O[C@@H](n2ccc(NC(=O)[C@H](NC(=O)OC(C)(C)C)C(C)C)nc2=O)C(F)(F)[C@@H]1O)Oc1ccccc1` (some centres unmarked) [1.1.2(2)], the EC50 in series [1] (setting [7]) was found to be 95.6 nM; in series [2] (setting [8]), 60.6 nM; in series [3] (setting [9]) it was 78.9 nM. In series [4], this molecule yielded a CC50 at 96 h of more than 10000 nM.

These data come from patent publication US20160031927A1 (ASAVI, LLC, priority 2013, published 2016).
